Assay: xn = mol fraction of the nth substance listed
Details: 100 kPa, Liquid; for viscosity: Falling or rolling sphere viscometry; for mass density: Vibrating tube method

OCC1CC1 [cyclopropylmethanol] + c1ccc2c(c1)CCCC2
Details | mass density [kg/m3] | viscosity [mPa·s]
293.15 K, x2 = 0 | 913.02 | 3.988
293.15 K, x2 = 0.0993 | 921.89 | 3.498
293.15 K, x2 = 0.1972 | 929.26 | 3.134
293.15 K, x2 = 0.3008 | 936.02 | 2.837
293.15 K, x2 = 0.3978 | 941.84 | 2.622
293.15 K, x2 = 0.4986 | 947.21 | 2.449
293.15 K, x2 = 0.6031 | 952.27 | 2.318
293.15 K, x2 = 0.7031 | 956.72 | 2.229
293.15 K, x2 = 0.7981 | 960.63 | 2.182
293.15 K, x2 = 0.901 | 964.72 | 2.164
298.15 K, x2 = 0 | 908.96 | 3.455
298.15 K, x2 = 0.0993 | 917.77 | 3.039
298.15 K, x2 = 0.1972 | 925.12 | 2.734
298.15 K, x2 = 0.3008 | 931.86 | 2.49
298.15 K, x2 = 0.3978 | 937.67 | 2.313
298.15 K, x2 = 0.4986 | 943.05 | 2.173
298.15 K, x2 = 0.6031 | 948.12 | 2.068
298.15 K, x2 = 0.7031 | 952.59 | 1.997
298.15 K, x2 = 0.7981 | 956.53 | 1.963
298.15 K, x2 = 0.901 | 960.66 | 1.952
303.15 K, x2 = 0 | 904.87 | 3.009
303.15 K, x2 = 0.0993 | 913.62 | 2.656
303.15 K, x2 = 0.1972 | 920.94 | 2.402
303.15 K, x2 = 0.3008 | 927.67 | 2.2
303.15 K, x2 = 0.3978 | 933.47 | 2.053
303.15 K, x2 = 0.4986 | 938.85 | 1.94
303.15 K, x2 = 0.6031 | 943.94 | 1.855
303.15 K, x2 = 0.7031 | 948.44 | 1.8
303.15 K, x2 = 0.7981 | 952.41 | 1.774
303.15 K, x2 = 0.901 | 956.59 | 1.77
308.15 K, x2 = 0 | 900.74 | 2.635
308.15 K, x2 = 0.0993 | 909.43 | 2.338
308.15 K, x2 = 0.1972 | 916.73 | 2.123
308.15 K, x2 = 0.3008 | 923.44 | 1.958
308.15 K, x2 = 0.3978 | 929.24 | 1.836
308.15 K, x2 = 0.4986 | 934.63 | 1.747
308.15 K, x2 = 0.6031 | 939.74 | 1.675
308.15 K, x2 = 0.7031 | 944.26 | 1.633
308.15 K, x2 = 0.7981 | 948.28 | 1.613
308.15 K, x2 = 0.901 | 952.52 | 1.618
313.15 K, x2 = 0 | 896.59 | 2.321
313.15 K, x2 = 0.0993 | 905.22 | 2.068
313.15 K, x2 = 0.1972 | 912.49 | 1.889
313.15 K, x2 = 0.3008 | 919.19 | 1.754
313.15 K, x2 = 0.3978 | 925 | 1.651
313.15 K, x2 = 0.4986 | 930.4 | 1.579
313.15 K, x2 = 0.6031 | 935.53 | 1.521
313.15 K, x2 = 0.7031 | 940.09 | 1.491
313.15 K, x2 = 0.7981 | 944.15 | 1.474
313.15 K, x2 = 0.901 | 948.45 | 1.485
318.15 K, x2 = 0 | 892.38 | 2.054
318.15 K, x2 = 0.0993 | 900.96 | 1.84
318.15 K, x2 = 0.1972 | 908.2 | 1.688
318.15 K, x2 = 0.3008 | 914.89 | 1.577
318.15 K, x2 = 0.3978 | 920.7 | 1.492
318.15 K, x2 = 0.4986 | 926.13 | 1.433
318.15 K, x2 = 0.6031 | 931.29 | 1.387
318.15 K, x2 = 0.7031 | 935.88 | 1.366
318.15 K, x2 = 0.7981 | 939.99 | 1.355
318.15 K, x2 = 0.901 | 944.36 | 1.369
323.15 K, x2 = 0 | 888.17 | 1.825
323.15 K, x2 = 0.0993 | 896.69 | 1.644
323.15 K, x2 = 0.1972 | 903.9 | 1.517
323.15 K, x2 = 0.3008 | 910.59 | 1.423
323.15 K, x2 = 0.3978 | 916.41 | 1.355
323.15 K, x2 = 0.4986 | 921.85 | 1.305
323.15 K, x2 = 0.6031 | 927.06 | 1.271
323.15 K, x2 = 0.7031 | 931.69 | 1.254
323.15 K, x2 = 0.7981 | 935.85 | 1.235
323.15 K, x2 = 0.901 | 940.3 | 1.263
328.15 K, x2 = 0 | 883.86 | 1.629
328.15 K, x2 = 0.0993 | 892.34 | 1.476
328.15 K, x2 = 0.1972 | 899.54 | 1.369
328.15 K, x2 = 0.3008 | 906.23 | 1.291
328.15 K, x2 = 0.3978 | 912.06 | 1.22
328.15 K, x2 = 0.4986 | 917.54 | 1.195
328.15 K, x2 = 0.6031 | 922.78 | 1.169
328.15 K, x2 = 0.7031 | 927.49 | 1.156
328.15 K, x2 = 0.7981 | 931.68 | 1.157
328.15 K, x2 = 0.901 | 936.23 | 1.174
333.15 K, x2 = 0 | 879.52 | 1.46
333.15 K, x2 = 0.0993 | 887.95 | 1.331
333.15 K, x2 = 0.1972 | 895.13 | 1.241
333.15 K, x2 = 0.3008 | 901.83 | 1.176
333.15 K, x2 = 0.3978 | 907.69 | 1.131
333.15 K, x2 = 0.4986 | 913.2 | 1.1
333.15 K, x2 = 0.6031 | 918.5 | 1.08
333.15 K, x2 = 0.7031 | 923.23 | 1.071
333.15 K, x2 = 0.7981 | 927.51 | 1.076
333.15 K, x2 = 0.901 | 932.14 | 1.094
338.15 K, x2 = 0 | 875.1 | 1.316
338.15 K, x2 = 0.0993 | 883.49 | 1.205
338.15 K, x2 = 0.1972 | 890.66 | 1.13
338.15 K, x2 = 0.3008 | 897.37 | 1.078
338.15 K, x2 = 0.3978 | 903.28 | 1.041
338.15 K, x2 = 0.4986 | 908.82 | 1.015
338.15 K, x2 = 0.6031 | 914.15 | 1.004
338.15 K, x2 = 0.7031 | 918.94 | 0.996
338.15 K, x2 = 0.7981 | 923.3 | 1.003
338.15 K, x2 = 0.901 | 928.03 | 1.024
343.15 K, x2 = 0 | 870.62 | 1.19
343.15 K, x2 = 0.0993 | 878.98 | 1.095
343.15 K, x2 = 0.1972 | 886.15 | 1.033
343.15 K, x2 = 0.3008 | 892.87 | 0.99
343.15 K, x2 = 0.3978 | 898.8 | 0.961
343.15 K, x2 = 0.4986 | 904.39 | 0.941
343.15 K, x2 = 0.6031 | 909.78 | 0.933
343.15 K, x2 = 0.7031 | 914.63 | 0.931
343.15 K, x2 = 0.7981 | 919.07 | 0.941
343.15 K, x2 = 0.901 | 923.91 | 0.961

— the NIST ThermoML archive (doi:10.1021/acs.jced.8b00662)
